The source of these data is paper PMC9645344, “Serotonin-releasing agents with reduced off-target effects” (Molecular Psychiatry, 2022).

pIC50: −log10 of the molar value.

Assay [1] concerns the target T1, human DAT (Homo sapiens, UniProt Q01959).
T1 construct: expressed in transfected cells
In words: DAT uptake inhibition assay in HEK293 cells ([3H]MPP+). The assay is classed as cell-based. As to the method: (§1) Human embryonic kidney 293 (HEK293) cells stably expressing the human isoforms of either DAT or SERT were maintained in Dulbecco’s Modified Eagle Medium (DMEM), supplemented with 10% fetal calf serum at a subconfluent state in humidified atmosphere (5% CO2, 37 °C).
(§2) Uptake inhibition assays were performed as described earlier. Briefly, HEK293 cells stably expressing human SERT or DAT were seeded onto poly- D-lysine (PDL) coated 96-well plates (40,000 cells well^−1) the day before an experiment. Prior to the uptake inhibition assay, DMEM was replaced with Krebs-HEPES buffer (KHB, 25 mM HEPES, 120 mM NaCl, 5 mM KCl, 1.2 mM CaCl2, 1.2 mM MgSO4, and 5 mM D-glucose, pH 7.3) and the cells were preincubated with test drugs for 5 min at room temperature. Uptake assays were initiated by adding 20 nM [^3H]MPP^+ to DAT cells or 100 nM [^3H]5-HT to SERT cells. After 180 s (DAT) or 60 s (SERT), the tritiated substrate was removed by aspiration. Cells were washed once with ice-cold KHB, then lysed in 1% sodium dodecyl sulfate (SDS) and subjected to liquid scintillation counting to quantify tritium accumulated in each sample. Non-specific uptake was determined in the presence of mazindol (1 µM) for DAT or paroxetine (1 µM) for SERT and subtracted throughout.

Assay [2] has as its target T2, human SERT (Homo sapiens, UniProt P31645).
T2 construct: expressed in transfected cells
Put plainly: SERT uptake inhibition assay in HEK293 cells ([3H]5-HT). The assay is classed as cell-based. As to the method:
as §1, §2

Assay [3] addresses T2, human SERT. Put plainly: [3H]5-HT release assay in HEK293 cells (superfusion). Format: cell-based. As to conditions: 10 µM, SERT-expressing HEK293 cells. As to the method: HEK293 cells stably expressing SERT were seeded onto PDL-coated glass coverslips (5 mm diameter) that were placed into 96-well plates at a density of 40,000 cells per well the day before the experiment. Cells were preloaded with [^3H]5-HT (0.4 µM, 20 min at 37 °C). Subsequently, the cells were transferred into small chambers with a total volume of 200 µl and superfused with KHB at a flow rate of 0.7 ml per min for 40 min to establish a stable baseline before the collection of 2-min fractions was initiated. For each experiment, three basal fractions were collected before the cells were exposed to various concentrations (given in the figure legends) of the test drugs for five fractions. Subsequently, the cells were superfused with 1% SDS for three final fractions that served to determine the total amount of radioactivity present within the cells at the end of each experimental run. The amount of tritium within each fraction was determined by liquid scintillation counting, and release was expressed as percentage of radioactivity released in relation to the total radioactivity present at the beginning of that fraction. Observations from superfusion experiments were excluded in case of premature exposure to SDS.

The subject of assay [4] is C57BL/6N mice. In words: Forced-swim test (FST). The assay is classed as in vivo. As to conditions: mice. Here is the method:
(§3) All in vivo experiments were performed in adult mice (>6 weeks old). For the photometry and microdialysis experiments, which were carried out in Florida, male C57BL/6J mice from The Jackson Laboratory (Bar Harbor, ME, USA) were group-housed in polycarbonate cages (GM500, Tecniplast, Buguggiate, Italy) with lights on from 7 a.m. to 7 p.m. Food and water were provided ad libitum. Photometry and microdialysis experiments were performed in accordance with a protocol approved by the Institutional Animal Care and Use Committee at Florida Atlantic University. For the behavioral experiments, which were carried out in Vienna, C57BL/6N mice from Charles River (Sulzfeld, Germany) were group-housed in polycarbonate cages with lights on from 7 a.m. to 7 p.m. Food and water were provided ad libitum. Behavioral experiments were performed in accordance with a protocol approved by the Austrian national ethical committee on animal care and use (Bundesministerium für Wissenschaft und Forschung: BMWFW-66.009/0016-WF/V/3b/2015). All animal procedures were conducted in agreement with the ARRIVE guidelines and the U.K. Animal (Scientific Procedures) Act, 1986, and associated guidelines, EU Directive 2010/63/EU for animal experiments. Mice were given at least 1 week to acclimate before being used in any experiments.
For behavioral assays, animals were assigned to treatment groups and injected with test drugs by an unblinded observer.
The FST was performed as previously described. In brief, mice were placed for 6 min in a beaker (diameter: 19 cm, height: 23 cm), halfway filled with water (22–23 °C), and the immobility time was quantified using the software Videotrack (Viewpoint, Champagne au Mont d’Or, France). Immobility was defined as the absence of any movement, except for those required to keep the head above the water. The time spent immobile during the final 4 min of the test was used as a measure of behavioral despair. Animal sample size was confirmed using a post hoc analysis of the achieved power using G*Power3.1 [29]. Using a significance level (α) of 0.05 and an effect size f = 2.5 and a sample size of 6 animals/group we achieved the commonly accepted statistical power (1−β) of 0.8.

Assay [5] concerns extracellular 5-HT in the NAc. Put plainly: Fiber photometry with GRAB5-HT sensor in the NAc of freely moving mice. Format: in vivo. The following applies: 5 mg kg-1 intraperitoneal. As to the method:
as §3
Mice were anesthetized with isoflurane (5% induction, 2% maintenance) and placed into a stereotaxic frame (Kopf Instruments, Tujunga, CA, USA) oriented in the flat skull position. Ophthalmic ointment was applied to prevent drying of the eyes. Ketoprofen (10 mg kg^−1) was administered subcutaneously (s.c.), whereas bupivacaine and lidocaine were administered locally (s.c.; 100 µl of sterile saline containing 0.05% bupivacaine and 0.2% lidocaine) to the surgical site atop the head. A midline incision was made through the skin on the dorsal surface of the head to expose the skull. Fascia was removed, coordinates for the NAc were determined relative to bregma: anterior/posterior = 1.54 mm; medial/lateral = 0.7 mm; dorsal/ventral = −4.1 mm. A 1 mm burr hole was drilled through the skull. […] For the mice used for fiber photometry, 4*10^12 genome copies of AAV9-hSyn-5-HT2h or 10^10 genome copies of AAV-hSyn-DA2m were delivered into the NAc at an infusion rate of 100 nl min^−1 (total volume of 1 µl) using a 34-gauge needle attached to a 10 µl Nanofil microsyringe (Hamilton, Reno, NV, USA), as previously described. Following injection of the virus, an optical fiber was lowered through the burr hole and secured with glass ionomer cement. Three 1.6 mm screws (00-96X1/16 39052, Plastics One Inc., Roanoke, VA, USA) were affixed to the skull to support a cement stage that was created to secure the implanted guide cannulae or optical fiber. Mice were singly housed following surgery and allowed 6 days of recovery for the microdialysis experiments or 21 days for the photometry experiments. Food and water were available ad libitum.
To monitor light emitted from the G-protein coupled receptor-activation-based 5-HT (GRAB5-HT) and DA (GRABDA) sensors, fiber photometry was performed as described. Briefly, a light emitting diode (465 nm) (CLED_465, Doric Lenses, Quebec, QC, Canada), reflected through a dichroic mirror, was coupled to an optical fiber (200 µm core/225 cladding diameter; Thorlabs, Newton, NJ, USA) that was glued to a metal ferrule (Doric Lenses, Quebec, QC, Canada) and implanted into the NAc as described above. Emitted, band-pass filtered light (500–550 nm, FMC6, Doric Lenses, Quebec,QC, Canada) was detected with a photodetector (Newport Femtowatt silicone PIN; New Focus, San Jose, CA, USA). Data were recorded using a RZ5P lock-in amplifier (Tucker-Davis Technologies, Alachua, FL, USA) controlled with Synapse software. Sinusoidal excitation was delivered at 210 Hz by an LED driver Doric Lenses, LEDD_4) at low power mode. A demodulated signal was low-pass filtered at 6 Hz and digitized at 1017 Hz. […]

Assay [6] relates to rat brain synaptosomes. Also on record: method as in PMID 26738428. As to conditions: cited from earlier work.
Assay [7] concerns VMAT2. Details: method as in PMID 25771452. The following applies: racemic; cited from earlier work.
For assay [8], the system named is extracellular DA. Also on record: method as in PMID 23178523. The following applies: racemic; cited from earlier work.

T1 sequence (Q01959 whole entry): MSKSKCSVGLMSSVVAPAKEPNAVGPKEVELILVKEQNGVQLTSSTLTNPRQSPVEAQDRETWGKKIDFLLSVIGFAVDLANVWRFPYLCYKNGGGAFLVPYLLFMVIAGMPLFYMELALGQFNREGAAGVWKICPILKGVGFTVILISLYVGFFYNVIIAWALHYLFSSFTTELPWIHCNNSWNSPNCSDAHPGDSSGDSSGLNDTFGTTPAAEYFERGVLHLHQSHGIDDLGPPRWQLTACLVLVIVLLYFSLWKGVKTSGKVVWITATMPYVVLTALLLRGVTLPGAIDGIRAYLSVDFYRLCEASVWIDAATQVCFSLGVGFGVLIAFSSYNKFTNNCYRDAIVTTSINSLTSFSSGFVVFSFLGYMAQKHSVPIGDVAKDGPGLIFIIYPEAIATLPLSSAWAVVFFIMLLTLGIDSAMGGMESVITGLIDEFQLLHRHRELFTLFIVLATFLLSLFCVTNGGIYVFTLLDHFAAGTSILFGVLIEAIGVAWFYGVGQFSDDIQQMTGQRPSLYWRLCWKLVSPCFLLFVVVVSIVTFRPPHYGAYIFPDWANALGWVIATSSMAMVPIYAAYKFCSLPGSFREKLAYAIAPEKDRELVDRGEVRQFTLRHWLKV
T2 sequence (P31645 whole entry): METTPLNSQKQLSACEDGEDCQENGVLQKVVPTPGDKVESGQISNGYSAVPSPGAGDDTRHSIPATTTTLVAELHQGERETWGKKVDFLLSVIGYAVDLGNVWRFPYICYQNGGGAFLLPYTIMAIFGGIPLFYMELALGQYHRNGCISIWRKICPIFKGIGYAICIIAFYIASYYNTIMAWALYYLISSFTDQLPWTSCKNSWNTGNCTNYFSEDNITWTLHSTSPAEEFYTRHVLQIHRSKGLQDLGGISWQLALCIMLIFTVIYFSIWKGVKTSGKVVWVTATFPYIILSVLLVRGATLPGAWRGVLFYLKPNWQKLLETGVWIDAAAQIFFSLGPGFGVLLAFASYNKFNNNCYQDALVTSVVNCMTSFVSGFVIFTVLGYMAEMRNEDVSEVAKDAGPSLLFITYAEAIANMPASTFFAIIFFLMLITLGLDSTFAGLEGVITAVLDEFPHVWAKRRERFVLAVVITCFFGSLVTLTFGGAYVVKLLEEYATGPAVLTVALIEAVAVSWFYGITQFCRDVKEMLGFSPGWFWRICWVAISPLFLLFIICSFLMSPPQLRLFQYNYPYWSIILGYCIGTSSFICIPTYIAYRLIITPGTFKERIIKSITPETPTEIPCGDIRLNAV

For `Cc1ccc(C(=O)[C@@H](C)N)cc1` [R-4-MC, 4-methylcathinone], the pIC50 (usually the negative decadic logarithm of the IC50, by convention in mol/L) in assay [1] is 5.02; in assay [2], 3.73. For the same molecule, the DAT/SERT ratio in assay [1] ((1/DAT IC50)/(1/SERT IC50), higher values indicate higher DAT-selectivity) was 19.3. Moreover, in assay [3], the “effect on release of preloaded [3H]5-HT” value is “did not alter basal release of 5-HT”. Besides, the “immobility time in the FST versus vehicle” value in assay [4] (1 mg kg-1 intraperitoneal), in assay [4] (5 mg kg-1 intraperitoneal) and in assay [4] (10 mg kg-1 intraperitoneal) was “had no effect” in each case. Further, the “extracellular 5-HT in the NAc (GRAB5-HT fluorescence)” value in assay [5] is “no effect on 5-HT was observed”. Besides, the “5-HT release efficacy in rat brain synaptosomes” value in assay [6] is “fully efficacious 5-HT releaser”.

`CNC(C)C(=O)c1ccc(C)cc1` (stereo not drawn) [4-MMC, 4-methyl-N-methylcathinone]: in assay [7], the “potency to inhibit VMAT2-mediated uptake, lower than that of MDMA” value is on record as 10 fold.

In assay [1], `CNC(C)C(=O)c1ccc(C(F)(F)F)cc1` (stereo not drawn) [4-TFMMC, 4-trifluoromethyl-N-methylcathinone] gave a pIC50 of under 4.00. Moreover, the “extracellular DA” value in assay [8] was “did not affect extracellular DA”.
